# According to patent US11046686B2, “Thiadiazole IRAK4 compounds” (Gilead Sciences, Inc., priority 2018, dated 2021):
# Tested on: TNFα
# Assay: IRAK4 Monocyte TNFα Cell Based Assay
# Set-up: species or system human
# Details: human monocytes; second part of Table 2, compounds 33-343; unit inferred; read-out: EC50 MONO TNF HTRF
# In short: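 Human monocytes (5,000/well) pretreated with compound 1 h at 37 °C (0.1% DMSO final), then stimulated with 50 pg/ml LPS for 4 h. Secreted TNFα measured by TR-FRET two-antibody detection after overnight incubation at room temperature; % control relative to unstimulated and LPS-stimulated wells.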
row,SMILES,EC50 [nM]
1,"CC(=O)N[C@@H]1[C@@H]2CCC[C@H]1CN(c1nnc(-c3cnc(-c4ccc5cc(C#N)cnn45)cc3NC(C)C)s1)C2 [Example 166, N-((1R,5S,9s)-3-(5-(6-(3-cyanopyrrolo[1,2-b]pyridazin-7-yl)-4-(isopropylamino)pyridin-3-yl)-1,3,4-thiadiazol-2-yl)-3-azabicyclo[3.3.1]nonan-9-yl)acetamide]",2.3
2,"CC(=O)N[C@@H]1[C@@H]2CC[C@H]1CN(c1nnc(-c3cnc(-c4ccc5cc(C#N)cnn45)cc3NC3CCOCC3)s1)C2 [Example 171, N-((1R,5S,8s)-3-(5-(6-(3-cyanopyrrolo[1,2-b]pyridazin-7-yl)-4-((tetrahydro-2H-pyran-4-yl)amino)pyridin-3-yl)-1,3,4-thiadiazol-2-yl)-3-azabicyclo[3.2.1]octan-8-yl)acetamide]",2.1
3,"CC(C)Nc1cc(-c2ccc3cc(C#N)cnn23)ncc1-c1nnc(N2CCC(O)(C(F)(F)F)CC2)s1 [Example 172, 7-(5-(5-(4-hydroxy-4-(trifluoromethyl)piperidin-l-yl)-1,3,4-thiadiazol-2-yl)-4-(isopropylamino)pyridin-2-yl)pyrrolo[1,2-b]pyridazine-3-carbonitrile]",34.4
4,"CC(=O)N[C@@H]1[C@@H]2C[C@H]1CN(c1nnc(-c3cnc(-c4ccc5cc(C#N)cnn45)cc3NC(C)C)s1)C2 [Example 173, N-((1R,5S,6s)-3-(5-(6-(3-cyanopyrrolo[1,2-b]pyridazin-7-yl)-4-(isopropylamino)pyridin-3-yl)-1,3,4-thiadiazol-2-yl)-3-azabicyclo[3.1.1]heptan-6-yl)acetamide]",11.6
5,"CC(=O)N[C@@H]1[C@@H]2C[C@H]1CN(c1nnc(-c3cnc(-c4ccc5cc(C#N)cnn45)cc3N[C@H](C)C#N)s1)C2 [Example 174, N-((1R,5S,6S)-3-(5-(4-(((R)-1-cyanoethyl)amino)-6-(3-cyanopyrrolo[1,2-b]pyridazin-7-yl)pyridin-3-yl)-1,3,4-thiadiazol-2-yl)-3-azabicyclo[3.1.1]heptan-6-yl)acetamide]",3.5
6,"CC(=O)N[C@@H]1[C@@H]2C[C@H]1CN(c1nnc(-c3cnc(-c4ccc5cc(C#N)cnn45)cc3NC3(C)COC3)s1)C2 [Example 175, N-((1R,5S,6s)-3-(5-(6-(3-cyanopyrrolo[1,2-b]pyridazin-7-yl)-4-((3-methyloxetan-3-yl)amino)pyridin-3-yl)-1,3,4-thiadiazol-2-yl)-3-azabicyclo[3.1.1]heptan-6-yl)acetamide]",9
7,"CNc1cc(-c2ccc3cc(C#N)cnn23)ncc1-c1nnc(N2C[C@H]3C[C@@H](C2)[C@@H]3NC(C)=O)s1 [Example 176, N-((1R,5S,6s)-3-(5-(6-(3-cyanopyrrolo[1,2-b]pyridazin-7-yl)-4-(methylamino)pyridin-3-yl)-1,3,4-thiadiazol-2-yl)-3-azabicyclo[3.1.1]heptan-6-yl)acetamide]",23.5
8,"CC(=O)N[C@@H]1[C@@H]2C[C@H]1CN(c1nnc(-c3cnc(-c4ccc5cc(C#N)cnn45)cc3NC3COC3)s1)C2 [Example 179, N-((1R,5S,6s)-3-(5-(6-(3-cyanopyrrolo[1,2-b]pyridazin-7-yl)-4-(oxetan-3-ylamino)pyridin-3-yl)-1,3,4-thiadiazol-2-yl)-3-azabicyclo[3.1.1]heptan-6-yl)acetamide]",6.4
9,C[C@H](C#N)Nc1cc(-c2ccc3cc(C#N)cnn23)ncc1-c1nnc(N2CCC(C)(O)CC2)s1 [Example 180],6.8
10,"CC1(O)CCN(c2nnc(-c3cnc(-c4ccc5cc(C#N)cnn45)cc3NC3(C)COC3)s2)CC1 [Example 181, 7-(5-(5-(4-hydroxy-4-methylpiperidin-l-yl)-1,3,4-thiadiazol-2-yl)-4-((3-methyloxetan-3-yl)amino)pyridin-2-yl)pyrrolo[1,2-b]pyridazine-3-carbonitrile]",18.4
11,"CC(=O)N[C@H]1[C@@H]2COC[C@H]1CN(c1nnc(-c3cnc(-c4ccc5cc(C#N)cnn45)cc3NC(C)C)s1)C2 [Example 182, N-((1R,5S,9r)-7-(5-(6-(3-cyanopyrrolo[1,2-b]pyridazin-7-yl)-4-(isopropylamino)pyridin-3-yl)-1,3,4-thiadiazol-2-yl)-3-oxa-7-azabicyclo[3.3.1]nonan-9-yl)acetamide]",37.8
12,CC(=O)N[C@@H]1[C@@H]2CC[C@H]1CN(c1nnc(-c3cnc(-c4ccc5cc(C#N)cnn45)cc3NC3COC3)s1)C2 [Example 184],2.4
13,"CC(C)Nc1cc(-c2ccc3cc(C#N)cnn23)ncc1-c1nnc(N2CC[C@@](C)(O)[C@@H](F)C2)s1 [Example 186, 7-(5-(5-((3S,4R)-3-fluoro-4-hydroxy-4-methylpiperidin-l-yl)-1,3,4-thiadiazol-2-yl)-4-(isopropylamino)pyridin-2-yl)pyrrolo[1,2-b]pyridazine-3-carbonitrile]",8.4
14,CC(C)Nc1cc(-c2ccc3cc(C#N)cnn23)ncc1-c1nnc(N2CCC(O)(CF)CC2)s1 [Example 189],16.3
15,"CC(C)Nc1cc(-c2ccc3cc(C#N)cnn23)ncc1-c1nnc([C@H]2C[C@@](C)(O)C2)s1 [Example 199, 7-(5-(5-((1s,3s)-3-hydroxy-3-methylcyclobutyl)-1,3,4-thiadiazol-2-yl)-4-(isopropylamino)pyridin-2-yl)pyrrolo[1,2-b]pyridazine-3-carbonitrile]",38.3
16,CC(=O)N[C@H]1C[C@H](c2nnc(-c3cnc(-c4ccc5cc(C#N)cnn45)cc3NC3CCOCC3)s2)C1 [Example 201],34.9
17,CC(=O)N[C@H]1C[C@H](c2nnc(-c3cnc(-c4ccc5cc(C#N)cnn45)cc3NC3COC3)s2)C1 [Example 202],166
18,"CC(=O)N[C@@H]1C[C@H]2COC[C@@H](C1)N2c1nnc(-c2cnc(-c3ccc4cc(C#N)cnn34)cc2NC(C)C)s1 [Example 209, N-((1R,5S,7r)-9-(5-(6-(3-cyanopyrrolo[1,2-b]pyridazin-7-yl)-4-(isopropylamino)pyridin-3-yl)-1,3,4-thiadiazol-2-yl)-3-oxa-9-azabicyclo[3.3.1]nonan-7-yl)acetamide]",9.6
19,"CC1(Nc2cc(-c3ccc4cc(C#N)cnn34)ncc2-c2nnc(N3C[C@H]4CC[C@@H](C3)[C@@H]4NC(=O)C(C)(C)O)s2)COC1 [Example 210, N-((1R,5S,8s)-3-(5-(6-(3-cyanopyrrolo[1,2-b]pyridazin-7-yl)-4-((3-methyloxetan-3-yl)amino)pyridin-3-yl)-1,3,4-thiadiazol-2-yl)-3-azabicyclo[3.2.1]octan-8-yl)-2-hydroxy-2-methylpropanamide]",2.8
20,"CC(C)Nc1cc(-c2ccc3cc(C#N)cnn23)ncc1-c1nnc(C(=O)N[C@H]2C[C@H](O)C2)s1 [Example 213, 5-(6-(3-cyanopyrrolo[1,2-b]pyridazin-7-yl)-4-(isopropylamino)pyridin-3-yl)-N-((1r,3r)-3-hydroxycyclobutyl)-1,3,4-thiadiazole-2-carboxamide]",1830
21,"CC(C)Nc1cc(-c2ccc3cc(C#N)cnn23)ncc1-c1nnc(C(=O)N[C@H]2C[C@@H](O)C2)s1 [Example 215, 5-(6-(3-cyanopyrrolo[1,2-b]pyridazin-7-yl)-4-(isopropylamino)pyridin-3-yl)-N-((1s,3s)-3-hydroxycyclobutyl)-1,3,4-thiadiazole-2-carboxamide]",3100
22,CC(C)Nc1cc(-c2ccc3cc(C#N)cnn23)ncc1-c1nnc(C(=O)N2CC[C@@H](CO)C2)s1 [Example 216],18.1
23,CC(C)Nc1cc(-c2ccc3cc(C#N)cnn23)ncc1-c1nnc(C(=O)N2CCC[C@H]2CO)s1 [Example 217],11.1
24,"CC(C)Nc1cc(-c2ccc3cc(C#N)cnn23)ncc1-c1nnc(C(=O)N[C@H]2C[C@@](C)(O)C2)s1 [Example 218, 5-(6-(3-cyanopyrrolo[1,2-b]pyridazin-7-yl)-4-(isopropylamino)pyridin-3-yl)-N-((1s,3s)-3-hydroxy-3-methylcyclobutyl)-1,3,4-thiadiazole-2-carboxamide]",858
25,CC(C)Nc1cc(-c2ccc3cc(C#N)cnn23)ncc1-c1nnc(C(=O)N[C@H]2C[C@](C)(O)C2)s1 [Example 219],2070
26,"CC(C)Nc1cc(-c2ccc3cc(C#N)cnn23)ncc1-c1nnc(C(=O)N[C@H]2CC[C@H](O)CC2)s1 [Example 220, 5-(6-(3-cyanopyrrolo[1,2-b]pyridazin-7-yl)-4-(isopropylamino)pyridin-3-yl)-N-((1r,4r)-4-hydroxycyclohexyl)-1,3,4-thiadiazole-2-carboxamide]",131
27,"CC(C)Nc1cc(-c2ccc3cc(C#N)cnn23)ncc1-c1nnc(C(=O)N[C@H]2CC[C@@H](O)CC2)s1 [Example 224, 5-(6-(3-cyanopyrrolo[1,2-b]pyridazin-7-yl)-4-(isopropylamino)pyridin-3-yl)-N-((1s,4s)-4-hydroxycyclohexyl)-1,3,4-thiadiazole-2-carboxamide]",4770
28,"CC(=O)NC1CCC(c2nnc(-c3cnc(-c4ccc5cc(C#N)cnn45)cc3NC3CCC(c4cnn(C(F)F)c4)CC3)s2)CC1 [Example 227, N-((1R,4r)-4-(5-(6-(3-cyanopyrrolo[1,2-b]pyridazin-7-yl)-4-(((1r,4R)-4-(1-(difluoromethyl)-1H-pyrazol-4-yl)cyclohexyl)amino)pyridin-3-yl)-1,3,4-thiadiazol-2-yl)cyclohexyl)acetamide]",14.4
29,"CNc1cc(-c2ccc3cc(C#N)cnn23)ncc1-c1nnc([C@H]2C[C@H](NC(C)=O)C2)s1 [Example 282, N-((1r,3r)-3-(5-(6-(3-cyanopyrrolo[1,2-b]pyridazin-7-yl)-4-(methylamino)pyridin-3-yl)-1,3,4-thiadiazol-2-yl)cyclobutyl)acetamide]",22.4
30,"CC(=O)NC1CC2CC1CC2c1nnc(-c2cnc(-c3ccc4cc(C#N)cnn34)cc2NC(C)C)s1 (stereo not drawn) [Example 285, N-(5-(5-(6-(3-cyanopyrrolo[1,2-b]pyridazin-7-yl)-4-(isopropylamino)pyridin-3-yl)-1,3,4-thiadiazol-2-y)bicyclo[2.2.1]heptan-2-yl)acetamide]",68
